From patent US11999727B2 (Tango Therapeutics, Inc., priority 2020, dated 2024)
Where two headings read alike, the source gives them in different places.

What was measured:
Assay type in all cases: cell-based
[1] = tested on: HAP1 MTAP-intact cell line; experiment: SDMA in-cell western assay, HAP1 MTAP-intact; conditions: Homo sapiens
Text: (§1) Table 1 also indicates IC50 values in an MTAP-isogenic cell line pair for exemplary compounds in an SDMA in-cell western assay (columns 7-8). HAP1 MTAP-intact is a cell line in which endogenous levels of MTAP are expressed, and HAP1 MTAP-deleted is an MTAP-null cell line.

[2] = tested on: HAP1 MTAP-deleted cell line; experiment: SDMA in-cell western assay, HAP1 MTAP-deleted; conditions: for IC50: Homo sapiens; for MTAP intact/deleted ratio: IC50 ratio HAP1 MTAP-intact / HAP1 MTAP-deleted, SDMA in-cell western
Text: as §1

[3] = tested on: HAP1 MTAP-deleted cell line; experiment: Viability assay, MTAP-deleted cell line; conditions: Homo sapiens
Text: Table 1 additionally indicates IC50 values in a viability assay for the MTAP-deleted cell line (column 10), indicating the effect of treatment with compound on cell survival.

[4] = HAP1, read-out: MTAP HAP1 intact IC50
[5] = HAP1, read-out: HAP1 MTAP deleted IC50
[6] = HAP1, read-out: HAP1 MTAP deleted viability
[7] = HAP1, SDMA in-cell western, HAP1 MTAP-intact, read-out: MTAP HAP1 intact IC50
[8] = HAP1, SDMA in-cell western, HAP1 MTAP-deleted, read-out: HAP 1 MTAP deleted IC50
[9] = HAP1, viability IC50, MTAP-deleted cell line, read-out: HAP1 MTAP deleted viability

Compound	IC50 [1, 7] [nM]	IC50 [2, 8] [nM]	IC50 [1, 4] [nM]	IC50 [2, 5] [nM]	IC50 [3, 6] [nM]	MTAP intact/deleted ratio [2]	IC50 [3, 9] [nM]
Cc1cc(NC(=O)C(=O)N2C[C@@H](C)CC[C@@H]2c2ccc3[nH]ncc3c2)cnc1N (single isomer, unassigned) [Compound 364]			> 1000	> 1000	> 10000		
Cc1cc([C@@H]2CC[C@@H](C)CN2C(=O)C(=O)Nc2cncc(C(N)=O)c2)cc2cn[nH]c12 (single isomer, unassigned) [Compound 611]	> 1000	> 1000				C (an IC50 ratio of less than 3 fold)	> 10000
Cc1cncc(NC(=O)C(=O)N2[C@@H](c3ccccc3)CC[C@H](C)[C@H]2C)c1 (single isomer, unassigned) [Compound 32]			> 1000	> 1000	> 10000		
C[C@@H]1CC[C@@H](c2ccc3cnccc3c2)N(C(=O)C(=O)Nc2cncc(C(N)=O)c2)C1 (single isomer, unassigned) [Compound 892]			> 1000	< 100	< 1000		
C[C@H]1CC[C@H](c2ccc3cnccc3c2)N(C(=O)C(=O)Nc2cncc(C(N)=O)c2)C1 (single isomer, unassigned) [Compound 885]			> 1000	> 1000	> 10000		
C[C@H]1CC[C@H](c2ccc3scnc3c2)N(C(=O)C(=O)Nc2cncc(C(N)=O)c2)C1 (single isomer, unassigned) [Compound 587]			100 to 1000	< 100	< 1000		
C[C@H]1CC[C@H](c2ccc3sc(C4CCN(C)CC4)nc3c2)N(C(=O)C(=O)Nc2cnc(N)c(C3COC3)c2)C1 (single isomer, unassigned) [Compound 1334]			< 100	< 100	< 1000		
C[C@H]1CC[C@H](c2ccc3sc(C4CCN(C)CC4)nc3c2)N(C(=O)C(=O)Nc2cnc(N)c(C3CC3)c2)C1 (single isomer, unassigned) [Compound 1222]			< 100	< 100	< 1000		
Cc1cc(NC(=O)C(=O)N2C[C@@H](C)CC[C@@H]2c2ccc3sc(CCN(C)C)nc3c2)cnc1N (single isomer, unassigned) [Compound 1279]			< 100	< 100	< 1000		
Cc1cc(NC(=O)C(=O)N2C[C@H](C)CC[C@H]2c2ccc3sc(C4CCN(C)CC4)nc3c2)cnc1N (single isomer, unassigned) [Compound 1293]			100 to 1000	< 100	< 1000		
C[C@H]1CC[C@H](c2ccc3scnc3c2)N(C(=O)C(=O)Nc2cnc(N)c(C3COC3)c2)C1 [Compound 1356, N-[6-amino-5-(oxetan-3-yl)-3-pyridyl]-2-[(2R,5S)-2-(1,3-benzothiazol-5-yl)-5-methyl-1-piperidyl]-2-oxo-acetamide]			100 to 1000	< 100	< 1000		

Continued, in another order:

IC50 [1, 7] [nM]	IC50 [2, 8] [nM]	Compound	IC50 [1, 4] [nM]	IC50 [2, 5] [nM]	IC50 [3, 6] [nM]	MTAP intact/deleted ratio [2]	IC50 [3, 9] [nM]
100 to 1000	< 100	Cc1cc(NC(=O)C(=O)N2C[C@@H](C)CC[C@@H]2c2ccc3c[nH]nc3c2)cnc1N (stereo in doubt) [Compound 636, N-(6-amino-5-methyl-3-pyridyl)-2-[(2R,5S)-2-(1H-indazol-6-yl)-5-methyl-1-piperidyl]-2-oxo-acetamide]				A (an IC50 ratio greater than or equal to 10 fold)	< 1000
> 1000	> 1000	Cc1cc(NC(=O)C(=O)N2C[C@H](C)CC[C@H]2c2ccc3cn[nH]c3c2)cnc1N (stereo in doubt) [Compound 613, N-(6-amino-5-methyl-3-pyridyl)-2-[(2S,5R)-2-(1H-indazol-6-yl)-5-methyl-1-piperidyl]-2-oxo-acetamide]				C (an IC50 ratio of less than 3 fold)	> 10000
> 1000	> 1000	COc1ncc(NC(=O)C(=O)N2C[C@H](C)CC[C@H]2c2ccc3sccc3c2)cc1C(N)=O (relative stereo) [Compound 633, 5-[[2-[(2S,5R)-2-(benzothiophen-5-yl)-5-methyl-1-piperidyl]-2-oxo-acetyl]amino]-2-methoxy-pyridine-3-carboxamide]				C (an IC50 ratio of less than 3 fold)	> 10000
